*1 amine or outer side, *2 acyl side, *3 side chain or, on linkers, in order; H or OH if unused. Where a SMILES comes first, the peptide text is derived from it. Bridges are numbered along the chain shown (N, C = ends). [ ]: non-standard residue; d: D form. The star is where a group is joined. Orn(4R-OH,5R-OH) = O=C([C@H](C[C@@H](O)[C@@H](O)N[*:3])N[*:1])[*:2]; hTyr(3S-OH,4S-OH) = N[C@H](C(=O)O)[C@H](O)[C@@H](O)c1ccc(O)cc1; Pro(3S-OH,4S-Me) = C[C@H]1CN[C@H](C(=O)O)[C@H]1O; Benzoyl(4-octyloxy) = CCCCCCCCOc1ccc(C(=O)*)cc1; Hyp = O=C(O)[C@@H]1C[C@@H](O)CN1
Legend:
[1] = tested on: C. albicans wild-type, ΔCOS-1/ΔCOS-1, hemizygous and reconstituted strains; assay: Sensitivity of C. albicans COS-1 strains to antifungal drugs in liquid RPMI medium (NCCLS M27-T); type: cell-based, Candida albicans
Protocol: For determination of viability and growth, each strain tested was grown from −80° C. stocks overnight at 37° C. in 50 ml of Sabouraud dextrose broth (30 g/L) (Difco, Catalog Number 0382-17-9) in 250 ml flasks with shaking at 180 rpm. Three hundred milliliter Nephelo flasks (Bellco) containing 60 ml medium were inoculated with 1×10^6 cells/ml (final concentration) from the starter culture and incubated at 37° C. with orbital shaking at 180 rpm. The optical density of each culture was determined periodically using a Klett-Summerson Photoelectric Colorimeter (Klett). For cell viability determination, overnight cultures were diluted and known numbers (as determined by hemacytometer counts) were plated onto agar-solidified SD medium and the numbers of resulting colonies determined. The sensitivity of each strain to a number of antifungal drugs in liquid medium was performed essentially as described in the National Committee for Clinical Laboratory Standards (NCCLS) 27T-protocol (Galgiani et al., NCCLS, 15:1-29 [1995]).

[2] = tested on: A. fumigatus wild-type and ΔFOS-1 strains; assay: Sensitivity to antifungals, variation of NCCLS M27T-protocol (microtiter broth); type: cell-based, Aspergillus fumigatus; details: 1×RPMI medium, 48 hours, 37° C., 96-well plates
Protocol: Sensitivity to antifungals: To assess the differential sensitivities of the wild-type and ΔFOS-1 strains to a number of antifungal compounds, the minimum inhibitor concentration of amphotericin B, nikkomycin Z, benomyl, miconazole, ketoconazole, fluconazole, cilofungin, 5-fluorocytosine and calcofluor white M2R new against the wild-type and ΔFOS-1 strains was determined. This fungal sensitivity was determined using a variation of the National Committee for Clinical Laboratory Standards (NCCLS) M27T-protocol (Galgiani et al., NCCLS, 15:1-29 [1995]). Briefly, serial dilutions of the anti-fungal drugs were made in 100 μl 1×RPMI medium (Life Technologies) and an additional 100 μl 1×RPMI medium containing 2×10^4 conidia/ml of each strain was added to each well of 96-well microtiter plates. Plates were incubated for 48 hours with gentle shaking at 37° C. The amount of growth in each well was estimated using a inverted phase microscope.

[3] = tested on: A. fumigatus wild-type and ΔFOS-1 strains; assay: Effect of oxidative stress compounds on hyphal growth; type: cell-based, Aspergillus fumigatus; details: agar-solidified MPG medium; diamide 0-2 mM or menadione 0-0.06 mM; 37° C., 3 days
Protocol: Effect of oxidative stress compounds: To determine the effect of various oxidative stress-inducing compounds on hyphal growth in the wild-type and ΔFOS-1 strains, 2 μl water containing 1×10^3 conidia were placed as single spots onto 150 mm×15 mm petri plates containing 30 ml agar-solidified MPG medium. In addition, these agar plates contained either diamide (0-2 mM; Sigma) (an SH residue oxidant that attacks surface proteins; de Souza Pereira and Geibel, J. Mol. Cell Biochem., 201:17-24 [1999]), or menadione (0-0.06 mM; Sigma Aldrich) (a superoxide generator; Caricchio et al., Clin. Immunol., 93:65-74 [1999]). These plates were incubated at 37° C. for 3 days. Hyphal growth/extension rates were determined by recording the distance traveled by hyphal fronts after various times of incubation.

[4] = tested on: OS-1 mutant strains of N. crassa; details: Beever 1983; cited from earlier work
[5] = tested on: A. fumigatus ΔFOS-1 strain; assay: Dicarboximide drug sensitivity: hyphal extension on agar-solidified MPG medium, ΔFOS-1 strain; type: cell-based, Aspergillus fumigatus; details: mean ± standard deviation of at least 12 data points
Protocol: (§1) Although an understanding of the mechanism is not necessary in order to use the present invention, resistance to dicarboximide antifungals by a number of fungi appears to involve a histidine kinase mutation. […] To test if the ΔFOS-1 strain was also resistant to vinclozolin, iprodione and procymidone, the growth of wild-type and ΔFOS-1 strains on medium containing each drug was examined. Briefly, wild-type and ΔFOS-1 conidia (1×10^3 in 2 μl) were inoculated onto agar-solidified MPG medium containing 10 μg/ml vinclozolin or iprodione, or 12 μg/ml procymidone. Hyphal extension rates in mm/hr were recorded, and a mean determined based on at least 12 individual data points. Results are shown±standard deviation. P values were calculated using the Students t test (http://nimitz.mcs.kent.edu/˜blewis/stat/tTest.html).

[6] = tested on: A. fumigatus wild-type strain; assay: Dicarboximide drug sensitivity: hyphal extension on agar-solidified MPG medium, wild-type strain; type: cell-based, Aspergillus fumigatus; details: mean ± standard deviation of at least 12 data points
Protocol: as §1

[7] = 10 μg/ml drug in agar-solidified MPG medium
[8] = 12 μg/ml drug in agar-solidified MPG medium

SMILES	Relative sensitivity of wild-type, ΔCOS-1/ΔCOS-1, hemizygous and reconstituted strains [1]	Difference in minimum inhibitor concentration between wild-type and ΔFOS-1 strains [2]	further results
CCCCNC(=O)n1c(NC(=O)OC)nc2ccccc21 [benomyl]	equally sensitive	No differences in minimum inhibitor concentration	–
CC(=O)N1CCN(c2ccc(OCC3COC(Cn4ccnc4)(c4ccc(Cl)cc4Cl)O3)cc2)CC1 (stereo not drawn) [ketoconazole]	equally sensitive	No differences in minimum inhibitor concentration	–
CN(C)C(=O)/N=N/C(=O)N(C)C [diamide]	–	–	Difference in hyphal growth/extension rates between wild-type and ΔFOS-1 strains [3]: No differences in hyphal growth/extension rates
C[C@@H]1[C@H](O)[C@@H](C)/C=C/C=C/C=C/C=C/C=C/C=C/C=C/[C@H](O[C@@H]2O[C@H](C)[C@@H](O)[C@H](N)[C@@H]2O)C[C@@H]2O[C@](O)(C[C@@H](O)C[C@@H](O)[C@H](O)CC[C@@H](O)C[C@@H](O)CC(=O)O[C@H]1C)C[C@H](O)[C@H]2C(=O)O [amphotericin B]	equally sensitive	No differences in minimum inhibitor concentration	–
C=CC1(C)OC(=O)N(c2cc(Cl)cc(Cl)c2)C1=O (stereo not drawn) [vinclozolin]	equally sensitive	–	Resistance of OS-1 mutant strains [4]: highly resistant; Hyphal extension rate, ΔFOS-1 [5, 7]: 0.50 ± 0.05 mm/hr; Hyphal extension rate, wild-type [6, 7]: 0.34 ± 0.11 mm/hr
OC(Cn1cncn1)(Cn1cncn1)c1ccc(F)cc1F [fluconazole]	equally sensitive	No differences in minimum inhibitor concentration	–
CC(C)NC(=O)N1CC(=O)N(c2cc(Cl)cc(Cl)c2)C1=O [iprodione]	–	–	Hyphal extension rate, ΔFOS-1 [5, 7]: 0.52 ± 0.03 mm/hr; Hyphal extension rate, wild-type [6, 7]: 0.29 ± 0.11 mm/hr
O=S(=O)([O-])c1cc(Nc2nc(Nc3ccccc3)nc(N(CCO)CCO)n2)ccc1/C=C/c1ccc(Nc2nc(Nc3ccccc3)nc(N(CCO)CCO)n2)cc1S(=O)(=O)[O-].[Na+].[Na+] [calcofluor white M2R new]	–	No differences in minimum inhibitor concentration	–
CC12CC1(C)C(=O)N(c1cc(Cl)cc(Cl)c1)C2=O (stereo not drawn) [procymidone]	–	–	Hyphal extension rate, ΔFOS-1 [5, 8]: 0.48 ± 0.08 mm/hr; Hyphal extension rate, wild-type [6, 8]: 0.21 ± 0.13 mm/hr
C[C@@H]([C@H](N)C(=O)N[C@H](C(=O)O)[C@H]1O[C@@H](n2ccc(=O)[nH]c2=O)[C@H](O)[C@@H]1O)[C@H](O)c1ccc(O)cn1 [nikkomycin Z]	equally sensitive	No differences in minimum inhibitor concentration	–
Nc1nc(=O)[nH]cc1F [5-fluorocytosine]	equally sensitive	No differences in minimum inhibitor concentration	–
CCCCCCCCOc1ccc(C(=O)N[C@H]2C[C@@H](O)[C@@H](O)NC(=O)[C@@H]3[C@@H](O)[C@@H](C)CN3C(=O)[C@H]([C@@H](C)O)NC(=O)[C@H]([C@H](O)[C@@H](O)c3ccc(O)cc3)NC(=O)[C@@H]3C[C@@H](O)CN3C(=O)[C@H]([C@@H](C)O)NC2=O)cc1 [cilofungin] ({Benzoyl(4-octyloxy)}-[Orn(4R-OH,5R-OH)]T[Hyp][hTyr(3S-OH,4S-OH)]T[Pro(3S-OH,4S-Me)]; lactam 1-C)	equally sensitive	No differences in minimum inhibitor concentration	–
CC1=CC(=O)c2ccccc2C1=O [menadione]	–	–	Difference in hyphal growth/extension rates between wild-type and ΔFOS-1 strains [3]: No differences in hyphal growth/extension rates
Clc1ccc(COC(Cn2ccnc2)c2ccc(Cl)cc2Cl)c(Cl)c1 (stereo not drawn) [miconazole]	equally sensitive	No differences in minimum inhibitor concentration	–

Reference: patent US6716625B1, “Histidine kinases of Aspergillus and other fungal species, related compositions, and methods of use” (priority 1997, dated 2004)
